Patent US10973801B2, “Capsid assembly modulator dosing regimen” (Janssen Sciences Ireland Unlimited Company, priority 2018, dated 2021)
Values joined by “and” are separate entries in the source; they are usually repeats but may differ in a detail not shown here. Identical values can stand only once. Like-named read-outs stand apart in the source and are kept apart here.

Legend:
Type in all cases: in vivo, human
[1] = Pharmacokinetics of Compound A in chronic HBV patients, 28 day treatment
Source text: In part 2 of this study (FIG. 1, sessions 8-9), the objective was to evaluate the safety, PK, and antiviral activity of Compound A in treatment naïve, chronic hepatitis B patients over a 28-day treatment period. The patient criteria were: • HBeAg-positive or negative • Plasma HBV DNA>2.0 log 10 IU/mL • ALT/AST<2.5×ULN • METAVIR stage<F3. 1.1 Patient Baseline Characteristics
The exposure (Cmax, AUC) increased in a dose-dependent manner with time-linear PK. The pharmacokinetics of Compound A were not markedly different between healthy volunteers and patients. Mean Compound A exposures in patients with CHB could be predicted from data in healthy volunteers. Mean (±SD) exposure in the 75 mg arm was within 90% prediction interval. […] Apparent clearance was low and similar in the two dosing groups (1 and 0.9 L/h at 25 mg and 75 mg, respectively).

[2] = Oral bioavailability of Compound A 25-mg and 100-mg oral tablets, fasted and fed, in healthy adult subjects; details: for Tmax: read-out: tmax (median)
Method: The primary objectives were to evaluate the oral bioavailability of Compound A when administered as single dose of 150 mg, composed of 6×25-mg oral tablets, under fasted and fed conditions, and as single dose of 300 mg, composed of 3×100-mg oral tablets, under fasted conditions in healthy adult subjects Part I was conducted to assess the bioavailability of new 25 mg oral tablets of Compound A under fasted and fed conditions, and of new 100 mg oral tablets of Compound A under fasted conditions, in healthy adult subjects. In Treatment Period 1 of Part I, all 16 subjects received a single 150 mg dose (6×25 mg oral tablets) under fed conditions (Treatment A). Thereafter, subjects were randomly assigned to either Arm 1 or Arm 2 in a 1:1 ratio. In Arm 1, subjects received a single 150 mg dose (6×25 mg oral tablets) under fasted conditions in Treatment Period 2 (Treatment B). In Arm 2, subjects received a single 300 mg dose (3×100 mg oral tablets) under fasted conditions in Treatment Period 2 (Treatment C). Full pharmacokinetic (PK) profiles of Compound A were determined over approximately 768 hours […] after Compound A administration on Day 1 of each treatment period. Safety and tolerability were assessed throughout the study. In Part I, 16 healthy adult subjects were included. After Treatment A (150 mg Compound A, fed) in Treatment Period 1, subjects were randomly assigned to either Arm 1 (n=8; Treatment B [150 mg Compound A, fasted]) or Arm 2 (Treatment C [[…]; 300 mg Compound A, fasted]) in a 1:1 ratio in Treatment Period 2. Fifteen subjects completed study participation in Part I, but all 16 subjects were included in the PK and safety analyses. […] Subjects had to be healthy on the basis of medical and surgical history, physical examination, 12 lead electrocardiogram (ECG), vital signs, and clinical laboratory tests performed at screening. Male and female subjects had to adhere to the contraceptive requirements as specified in the protocol. The study consisted of a screening phase, an admission phase, a treatment phase, and a follow-up phase (posttreatment phase). During the follow-up phase, subjects returned to the study site 10-14 days and 30-35 days after study drug administration in the last treatment period for a follow-up visit. The duration of each treatment phase was 33±3 days and the study duration per individual subject was at least 61 days (including admission and follow-up period), screening period not included.

[3] = Part 1: tolerability of Compound A in healthy subjects (sessions 1-7); details: single doses up to 600 mg, multiple doses 150 mg for two days then 100 mg once a day for 10 days
[4] = 150 mg, 6 × 25 mg, Fasting, Treatment B
[5] = 150 mg, 6 × 25 mg, Fasting, Treatment B (Reference)
[6] = 150 mg, 6 × 25 mg, Fed, Treatment A
[7] = 300 mg, 3 × 100 mg, Fasting, Treatment C
[8] = 300 mg, 3 × 100 mg, Fasting, Treatment C (Test)
[9] = Treatment A (fed) vs Treatment B (fasted), 150 mg
[10] = Treatment C (3 × 100 mg) vs Treatment B (6 × 25 mg), fasting

Apparent clearance ([1]; 25 mg): 1 L/h
Mean dose normalized AUC 0-24 h ([1]; 25 mg): 1109 ng·h/mL
Mean dose normalized Cmax at steady state ([1]; 25 mg): 56.6 ng/mL
dose proportionality of pharmacokinetics ([1]; 25 mg and 75 mg arms): dose-proportional
Apparent clearance ([1]; 75 mg): 0.9 L/h
Mean dose normalized AUC 0-24 h ([1]; 75 mg): 1109 ng·h/mL
Mean dose normalized Cmax at steady state ([1]; 75 mg): 53.2 ng/mL
AUClast, dose normalized to 25 mg (mean) [2, 4]: 29467 ng·h/mL
AUC∞, dose normalized to 25 mg (mean) [2, 4]: 30318 ng·h/mL
Cmax, dose normalized to 25 mg (mean) [2, 4]: 320 ng/mL
AUClast, dose normalized (to 25 mg), Geometric Mean [2, 5]: 27226 ng·h/mL
AUC∞, dose normalized (to 25 mg), Geometric Mean [2, 5]: 28011 ng·h/mL
Cmax, dose normalized (to 25 mg), Geometric Mean [2, 5]: 294 ng/mL
AUClast, dose normalized to 25 mg (mean) [2, 6]: 28502 ng·h/mL
AUC∞, dose normalized to 25 mg (mean) [2, 6]: 29580 ng·h/mL
Cmax, dose normalized to 25 mg (mean) [2, 6]: 257 ng/mL
AUClast, dose normalized to 25 mg (mean) [2, 7]: 30951 ng·h/mL
AUC∞, dose normalized to 25 mg (mean) [2, 7]: 32747 ng·h/mL
Cmax, dose normalized to 25 mg (mean) [2, 7]: 231 ng/mL
AUClast, dose normalized (to 25 mg), Geometric Mean [2, 8]: 30835 ng·h/mL
AUC∞, dose normalized (to 25 mg), Geometric Mean [2, 8]: 32329 ng·h/mL
Cmax, dose normalized (to 25 mg), Geometric Mean [2, 8]: 231 ng/mL
AUClast Geometric Mean Ratio [2, 9]: 101.05%
AUC∞ Geometric Mean Ratio [2, 9]: 101.91%
Cmax Geometric Mean Ratio [2, 9]: 85.8% and 85.84%
Cmax lower under fed conditions [2, 9]: 14.2%
Mean (range) t½term ([2]; Treatment A, 150 mg fed): 134.3 (65.7-221.6) hours
Mean (range) t½term ([2]; Treatment B, 150 mg fasted): 123.9 (72.3-195.7) hours
AUClast, dose normalized, Geometric Mean Ratio [2, 10]: 113.26%
AUC∞, dose normalized, Geometric Mean Ratio [2, 10]: 115.42%
Cmax, dose normalized, Geometric Mean Ratio [2, 10]: 78.4% and 78.44%
dose normalized Cmax lower for the 100 mg tablet strength compared to the 25 mg tablet strength ([2]; Treatment C vs Treatment B, fasted): 21.6%
Mean (range) t½term ([2]; Treatment C, 300 mg fasted): 161.1 (111.5-257.3) hours
AUC(0-t) ([2]; both sexes, human, in vivo, oral, 150 mg, 6 × 25 mg, Fasting, Treatment B (Reference), read-out: AUClast, Geometric Mean): 163 µg·h/mL
AUC(0-inf) ([2]; both sexes, human, in vivo, oral, 150 mg, 6 × 25 mg, Fasting, Treatment B (Reference), read-out: AUC∞, Geometric Mean): 168 µg·h/mL
Cmax ([2]; both sexes, human, in vivo, oral, 150 mg, 6 × 25 mg, Fasting, Treatment B (Reference), read-out: Cmax, Geometric Mean): 1770 ng/mL
AUC(0-t) ([2]; both sexes, human, in vivo, oral, 150 mg, 6 × 25 mg, Fasting, Treatment B, read-out: AUClast (mean)): 177 µg·h/mL
AUC(0-inf) ([2]; both sexes, human, in vivo, oral, 150 mg, 6 × 25 mg, Fasting, Treatment B, read-out: AUC∞ (mean)): 182 µg·h/mL
Cmax ([2]; both sexes, human, in vivo, oral, 150 mg, 6 × 25 mg, Fasting, Treatment B, read-out: Cmax (mean)): 1920 ng/mL
Tmax ([2]; both sexes, human, in vivo, oral, 150 mg, 6 × 25 mg, Fasting, Treatment B): 1.75 h
Cmax ([2]; both sexes, human, in vivo, oral, 150 mg, 6 × 25 mg, Fed (Standard Breakfast), Treatment A, read-out: Cmax (mean)): 1540 ng/mL
AUC(0-t) ([2]; both sexes, human, in vivo, oral, 150 mg, 6 × 25 mg, Fed, Treatment A (Test), read-out: AUClast, Geometric Mean): 165 µg·h/mL
AUC(0-inf) ([2]; both sexes, human, in vivo, oral, 150 mg, 6 × 25 mg, Fed, Treatment A (Test), read-out: AUC∞, Geometric Mean): 171 µg·h/mL
Cmax ([2]; both sexes, human, in vivo, oral, 150 mg, 6 × 25 mg, Fed, Treatment A (Test), read-out: Cmax, Geometric Mean): 1520 ng/mL
AUC(0-t) ([2]; both sexes, human, in vivo, oral, 150 mg, 6 × 25 mg, Fed, Treatment A, read-out: AUClast (mean)): 171 µg·h/mL
AUC(0-inf) ([2]; both sexes, human, in vivo, oral, 150 mg, 6 × 25 mg, Fed, Treatment A, read-out: AUC∞ (mean)): 177 µg·h/mL
Tmax ([2]; both sexes, human, in vivo, oral, 150 mg, 6 × 25 mg, Fed, Treatment A): 4 h
AUC(0-t) ([2]; both sexes, human, in vivo, oral, 300 mg, 3 × 100 mg, Fasting, Treatment C, read-out: AUClast (mean)): 371 µg·h/mL
AUC(0-inf) ([2]; both sexes, human, in vivo, oral, 300 mg, 3 × 100 mg, Fasting, Treatment C, read-out: AUC∞ (mean)): 393 µg·h/mL
Cmax ([2]; both sexes, human, in vivo, oral, 300 mg, 3 × 100 mg, Fasting, Treatment C, read-out: Cmax (mean)): 2770 ng/mL
Tmax ([2]; both sexes, human, in vivo, oral, 300 mg, 3 × 100 mg, Fasting, Treatment C): 3 h
clearance ([2]; both sexes, human, in vivo, oral, over all treatments and individuals, read-out: Clearance (CUF)): 7.83 to 25.8 mL/min
SMILES: C[C@H](NS(=O)(=O)c1cc(C(=O)Nc2ccc(F)c(C#N)c2)n(C)c1)C(F)(F)F [Compound A]
tolerability [3]: well tolerated
